Data published in patent publication US20230391845A1, “GLP-1, GIP AND GLUCAGON RECEPTOR TRIPLE AGONISTS” (priority 2020, published 2023).
pEC50: −log10 of the molar value. *1 amine or outer side, *2 acyl side, *3 side chain or, on linkers, in order; H or OH if unused. Where a SMILES comes first, the peptide text is derived from it. Side-chain parts run from the residue outwards. [ ]: non-standard residue; d: D form. The star is where a group is joined. C20 diacid = O=C(O)CCCCCCCCCCCCCCCCCCC(=O)*; γGlu = O=C(O)[C@H](CCC(=O)[*:2])N[*:1]; εLys = N[C@@H](CCCCN[*:1])C(=O)[*:2]; Aib = CC(C)(N)C(=O)O

Target: T1, human GIP receptor (Homo sapiens, UniProt P48546)
T1 construct: expressed in transfected cells; host or cells: BHK cells (parent line BHKTS13) containing CRE luciferase
T1 sequence (P48546 22-466): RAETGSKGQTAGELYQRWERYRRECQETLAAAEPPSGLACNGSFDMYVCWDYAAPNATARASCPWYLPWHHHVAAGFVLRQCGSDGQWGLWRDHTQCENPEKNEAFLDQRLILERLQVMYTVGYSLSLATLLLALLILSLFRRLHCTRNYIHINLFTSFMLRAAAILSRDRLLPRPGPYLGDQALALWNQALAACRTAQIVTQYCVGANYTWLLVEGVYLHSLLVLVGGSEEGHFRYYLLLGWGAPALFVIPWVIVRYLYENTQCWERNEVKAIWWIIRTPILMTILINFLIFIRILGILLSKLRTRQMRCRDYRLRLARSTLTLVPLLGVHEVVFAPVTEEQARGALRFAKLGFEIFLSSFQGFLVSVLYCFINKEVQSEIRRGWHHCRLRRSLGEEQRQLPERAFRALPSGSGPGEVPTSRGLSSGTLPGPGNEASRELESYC
Assay: In vitro functional potency (CRE luciferase; whole cells), human GIPR
Assay type: cell-based
Conditions: BHK CRE luc2P hGIPR whole cells; Table 2; read-out: hGIPR CRE Luc EC50

## CC(C)C[C@H](NC(=O)[C@H](CC(C)C)NC(=O)[C@H](Cc1c[nH]c2ccccc12)NC(=O)[C@H](CCC(N)=O)NC(=O)[C@@H](NC(=O)[C@H](Cc1ccccc1)NC(=O)[C@H](CCC(=O)O)NC(=O)C(C)(C)NC(=O)[C@H](C)NC(=O)[C@H](Cc1ccc(O)cc1)NC(=O)[C@H](CCC(N)=O)NC(=O)[C@H](CCCCNC(=O)[C@@H](N)CCCCNC(=O)[C@@H](N)CCCCNC(=O)CC[C@H](NC(=O)CCCCCCCCCCCCCCCCCCC(=O)O)C(=O)O)NC(=O)[C@H](CCC(=O)O)NC(=O)[C@H](CC(C)C)NC(=O)[C@H](Cc1ccc(O)cc1)NC(=O)[C@H](Cc1ccc(O)cc1)NC(=O)[C@H](CO)NC(=O)[C@H](Cc1ccc(O)cc1)NC(=O)[C@H](CC(=O)O)NC(=O)[C@H](CO)NC(=O)[C@@H](NC(=O)[C@H](Cc1ccccc1)NC(=O)[C@@H](NC(=O)CNC(=O)[C@H](Cc1c[nH]cn1)NC(=O)C(C)(C)NC(=O)[C@@H](N)Cc1c[nH]cn1)[C@@H](C)O)[C@@H](C)O)C(C)C)C(=O)N[C@@H](CCC(=O)O)C(=O)NCC(=O)NCC(=O)N1CCC[C@H]1C(=O)N[C@@H](CO)C(=O)N[C@@H](CO)C(=O)NCC(=O)N[C@@H](C)C(=O)N1CCC[C@H]1C(=O)N1CCC[C@H]1C(=O)N1CCC[C@H]1C(=O)N[C@@H](CO)C(N)=O [Compound No. 29] (H-H[Aib]HGTFTSDYSYYLEK([εLys-εLys-γGlu-C20 diacid])QYA[Aib]EFVQWLLEGGPSSGAPPPS-NH2)
  pEC50: 11.14

## CC[C@H](C)[C@H](NC(=O)[C@H](CO)NC(=O)[C@H](Cc1ccc(O)cc1)NC(=O)[C@H](CC(=O)O)NC(=O)[C@H](CO)NC(=O)[C@@H](NC(=O)[C@H](Cc1ccccc1)NC(=O)[C@@H](NC(=O)CNC(=O)[C@H](Cc1c[nH]cn1)NC(=O)C(C)(C)NC(=O)[C@@H](N)Cc1c[nH]cn1)[C@@H](C)O)[C@@H](C)O)C(=O)N[C@@H](CC(C)C)C(=O)N[C@@H](CC(C)C)C(=O)N[C@@H](CCC(=O)O)C(=O)N[C@@H](CCCCNC(=O)[C@@H](N)CCCCNC(=O)[C@@H](N)CCCCNC(=O)CC[C@H](NC(=O)CCCCCCCCCCCCCCCCCCC(=O)O)C(=O)O)C(=O)N[C@@H](CCC(N)=O)C(=O)N[C@@H](C)C(=O)N[C@@H](C)C(=O)N[C@@H](CCC(=O)O)C(=O)N[C@@H](CCC(=O)O)C(=O)N[C@@H](Cc1ccccc1)C(=O)N[C@H](C(=O)N[C@@H](CCC(N)=O)C(=O)N[C@@H](Cc1c[nH]c2ccccc12)C(=O)N[C@@H](CC(C)C)C(=O)N[C@@H](CC(C)C)C(=O)N[C@@H](CCC(=O)O)C(=O)NCC(=O)NCC(=O)N1CCC[C@H]1C(=O)N[C@@H](CO)C(=O)N[C@@H](CO)C(=O)NCC(=O)N[C@@H](C)C(=O)N1CCC[C@H]1C(=O)N1CCC[C@H]1C(=O)N1CCC[C@H]1C(=O)N[C@@H](CO)C(=O)O)C(C)C [Compound No. 50] (H-H[Aib]HGTFTSDYSILLEK([εLys-εLys-γGlu-C20 diacid])QAAEEFVQWLLEGGPSSGAPPPS-OH)
  pEC50: 11.72
